Results reported in patent US4098823A, “Monospiroalkyl derivatives of prostaglandins” (Miles Laboratories, Inc., priority 1977, dated 1978).
Converted amounts (≈) assume the structure as drawn.

Key:
rat colon = assay: Cascade Assay, colon (smooth muscle stimulant effect); assay type: cell-based; conditions: superfused, 50% of maximum (PGF2α)
Description: (§1) The smooth muscle stimulant effects of test compounds were determined simultaneously in four different tissues that are known to be reactive to naturally occurring prostaglandins. Segments of rat stomach fundus, rat colon, chick rectum and rabbit aortic strip were obtained as described by: Vane, J. R., Brit. J. Pharmacol., 12: 344 (1957); Regoli, D. and Vane, J. R., Brit. J. Pharmacol., 23: 351 (1964); Mann, M. and West, G. B., Brit. J. Pharmacol., 5: 173 (1950); and Furchgott, R. F. and Bhadrakom, R., J. Pharmacol. Exper. Ther., 108: 129 (1953). One end of each preparation was tied to the bottom of a 10 ml tissue chamber and the other to a force displacement transducer (Grass FT-03) for continuous tension recording. The stomach, colon, and rectum segments were stretched to an initial tension of 1 g, while the aortic strip was subjected to 4 g. All preparations were left undisturbed for 1 hour prior to testing. The chambers were equipped with an external jacket through which water, maintained at 40° C, was circulated. Preparations were arranged one beneath the other in descending order (aorta, stomach, colon and rectum). Provision was made for bathing the four tissues successively so that they were superfused with the same fluid (Gaddum, H. J., Brit. J. Pharmacol., 6: 321 [1953]. The bathing fluid consisted of: Krebs bicarbonate solution aerated with a mixture of 95% O2 and 5% CO2 and warmed at 37° C; atropine sulphate (0.1 mcg/ml), phenoxybenzamine hydrochloride (0.1 mcg/ml), propranolol hydrochloride (3.0 mcg/ml), methysergide maleate (0.2 mcg/ml) and brompheniramine maleate (0.1 mcg/ml) were added to eliminate the possibility of smooth muscle responses being due to stimulation of cholinergic, adrenergic, serotonin or histamine receptors. The fluid was circulated by means of a roller pump and was allowed to drip over the preparations at a rate of 10 ml/minute.
(§2) Test compounds were diluted from stock solutions so as to administer quantities ranging from 0.001 100,000 ng in a volume of 0.5 ml. The compounds were applied by dripping on the uppermost tissue, at intervals of 10 to 20 minutes. Maximal increases in tension after each dose were measured and the results were used to plot dose-response curves. ED50 data (doses necessary to produce a response 50% of maximum) were then calculated graphically for each tissue.
(§3) Activity in each tissue was scored according to the following scale: […]

Gastric Secretion = assay: Effects on Gastric Secretion in the Rat; assay type: in vivo; conditions: pylorus-ligated rat, subcutaneous, 2 x 1.5 mg/kg (total 3.0 mg/kg), 4 hours
Description: A procedure based on that described by Lipmann (J. Pharm. Pharmacol., 21:335 [1968]) was used to assess the influence of test compounds on gastric secretion. Rats of one sex weighing 150 to 200 g were randomly divided into groups of six animals each and fasted for 48 hours previously to the experiments, water being available adlibitum. The animals were anesthetized with ether, the abdomen was opened through a midline incision and the pylorus was ligated. Test compounds were diluted from stock solution so as to administer a dose of 1.5 mg/kg in a volume equivalent to 1 ml/kg. Subcutaneous injections were applied immediately after surgery and again 2 hours later, so that a total dose of 3.0 mg/kg was administered. Dilutions were made with phosphate buffer (pH 7.38) as recommended by Lee et al. (Prostaglandins 3:29 [1973]), in order to insure adequate stability of drugs at the subcutaneous depot. Each compound was tested in one group of rats; an additional control group received only the vehicle.
Four hours after pyloric ligation the animals were killed with ether, the cardias ligated and the stomachs removed. The volume of gastric secretion was measured and the contents centrifuged at 500 rpm for 10 minutes. Total acid in the supernatant was titrated against a 0.1 N sodium hydroxide solution and the amount expressed in mEq.
Volume and total acid values of the treated group were compared with those of the controls by the "T" test. Antisecretory activity was scored according to the following scale: […]

rat stomach fundus = assay: Cascade Assay, stomach (smooth muscle stimulant effect); assay type: cell-based; conditions: superfused, 50% of maximum (PGE1)
Description: as §1, §2, §3

chick rectum = assay: Cascade Assay, rectum (smooth muscle stimulant effect); assay type: cell-based; conditions: superfused, 50% of maximum (PGE1)
Description: as §1, §2, §3

rabbit aortic strip = assay: Cascade Assay, aorta (smooth muscle stimulant effect); assay type: cell-based; conditions: superfused, 50% of maximum (PGA2)
Description: as §1, §2, §3

Rat Uterus = assay: Effects on the Rat Uterus in Vitro; assay type: cell-based; conditions: for EC50: Rattus norvegicus, read-out: Test F Rat Uterus, Activity Value (ED50)
Description: The uterine stimulant effect of test compounds was determined in segments of uterus obtained from rats (140-160 g) pretreated subcutaneously with 1 mg/kg of diethyl-stilbesterol 18 hours before the experiment. The tissues were placed in 10 ml chambers filled with de-Jalon solution at 29° C, were aerated and bubbled with 95% O2 and 5% CO2, and were prepared for isometric recording with force displacement transducers. Preparations were stretched to an initial tension of 1 g and were left undisturbed for 30 minutes. Carbachol (1 mcg/ml) was then added to the bath and a response was recorded. After a 10 minute interval the carbachol procedure was repeated. Responses to increasing concentrations of a test compound (0.001 to 10 mcg/ml with one log intervals) were then recorded every 10 minutes. Preparations were washed four times after each response. All doses of compounds were administered in a 0.1 ml volume. Because it has been observed that the magnitude of the second response to carbachol (approximately 10% greater than the first) is close to the maximal response of the tissue, such value was taken as a measure of the sensitivity of a particular segment. Responses to each concentration of the test compound were expressed in terms of percentage of the second response to carbachol and the ED50 (dose producing a response 50% that of carbachol) was calculated graphically. Activity was scored according to the following scale: […]

[1] = test system: Blood Pressure and Heart Rate; assay: Effects on Blood Pressure and Heart Rate in the Anesthetized Cat; assay type: in vivo; conditions: intravenous, 0.01 to 10.0 mcg/kg, scored only on hypotension;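 note: Anesthetized cats given intravenous doses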
Description: The acute effects of test compounds on blood pressure and heart rate were determined in cats of either sex anesthetized with a mixture of pentobarbital sodium (35 mg/kg, i.v.) and barbital sodium (100 mg/kg, i.v.). Cannulas were placed in the trachea to allow adequate spontaneous ventilation, in a femoral artery for blood pressure recording with a strain gage transducer, and in a saphenous vein for drug administration. Heart rate was recorded by means of a cardiotachometer driven by the R wave of the electrocardiogram. After a period of 10 minutes of stable recordings of blood pressure and heart rate, the test compound was administered intravenously at doses increasing from 0.01 to 10.0 mcg/kg, spaced one log and injected at 10 minutes intervals. All doses were injected in a volume of 0.1 ml/kg. Modifications of blood pressure and heart rate induced by the test compound were expressed both in absolute units (mmHg and beats/minutes) and as percent of values recorded immediately before administration of each dose. Biphasic responses were tabulated in the order in which they occur. The direction of the observed changes was also noted (+ for increases and - for decreases).
Activity of compounds in this test was judged only on the basis of the degree of hypotension observed. Thus, the ED50 mmHg (dose decreasing blood pressure by 50 mmHg) was calculated graphically and the compound scored according to the following scale: […]

[2] = in vitro, 29° C, response 50% that of carbachol

Structure (SMILES)	EC50 (Rat Uterus; [2])	Test E Cascade Assay, Colon, Activity Value (ED50) (rat colon)	Test B Activity Value (% decrease in acidity, inhibition of gastric secretion) (Gastric Secretion)	Test E Cascade Assay, Stomach, Activity Value (ED50) (rat stomach fundus)	Test E Cascade Assay, Rectum, Activity Value (ED50) (chick rectum)	Test E Cascade Assay, Aorta, Activity Value (ED50) (rabbit aortic strip)	Test D Activity Value (ED50 mmHg, decrease in blood pressure) [1]	Test F Rat Uterus, Activity Value (ED50) (Rat Uterus; [2])	magnitude of second response to carbachol relative to the first (Rat Uterus; carbachol 1 mcg/ml, second response greater than the first)
O=C1C[C@@H](O)[C@H](/C=C/[C@H](O)C2CC3(CCC3)C2)[C@H]1CCCCCCCO [TR-4713, 7-{3R-hydroxy-5-oxo-2R-[3R-hydroxy-3-(spiro[3.3]hept-2-yl)-1E-propenyl]cyclopent-1R-yl}heptan-1-ol]	> 10 µg/mL	0 (>10000)	4 (76-100)	0 (>10000)	1 (1001 - 10000)	0 (>10000)	–	–	–
CCOC(=O)CCC/C=C\C[C@H]1C(=O)C[C@@H](O)[C@@H]1/C=C/[C@H](O)C1CC2(CCC2)C1 [TR-4726, Ethyl 7-{3R-hydroxy-5-oxo-2R-[3R-hydroxy-3-(spiro[3.3]hept-2-yl)-1E-propenyl]cyclopent-1R-yl}hept-5Z-enoate]	> 10 µg/mL	0 (>10000)	0 (<26)	0 (>10000)	0 (>10000)	0 (>10000)	–	–	–
COC(=O)CCCCCC[C@H]1C(=O)C=C[C@H]1/C=C/[C@H](O)C1CC2(CCC2)C1 [TR-4127, Methyl 7-{5-oxo-2R-[3R-hydroxy-3-(spiro[3.3]hept-2-yl)-1E-propenyl]cyclopent-3-en-1R-yl}hepanoate]	–	0 (>10000)	–	0 (>10000)	0 (>10000)	0 (>10000)	0 (>10.0)	0 (>10)	–
COC(=O)CCC/C=C\C[C@H]1C(=O)CCC[C@@H]1/C=C/[C@@H](O)C1CC2(CCC2)C1 (relative stereo) [TR-4758, dl Methyl-7-{6-ozo-2R-∂3S-hydroxy-3-(spiro[3.3]hept-2-yl)-1E-propenyl]cyclohex-1R-yl}hept-5Z-enoate]	> 10 µg/mL	0 (>10000)	0 (<26)	0 (>10000)	0 (>10000)	0 (>10000)	–	–	–
C[N+](C)(C)CCOC(N)=O [carbachol, reference compound]	–	–	–	–	–	–	–	–	approximately 10%
CCOC(=O)CCC/C=C\C[C@H]1C(=O)C[C@@H](O)[C@@H]1/C=C/[C@@H](O)C1CC2(CCC2)C1 [TR-4727, Ethyl 7-{3R-hydroxy-5-oxo-2R-[3S-hydroxy-3-(spiro[3.3]hept-2-yl)-1E-propenyl]cyclopent-1R-yl}hept-5Z-enoate]	> 10 µg/mL	0 (>10000)	0 (<26)	0 (>10000)	0 (>10000)	0 (>10000)	–	–	–

More lines, main results first:

EC50 (Rat Uterus; [2])	Structure (SMILES)	Test E Cascade Assay, Colon, Activity Value (ED50) (rat colon)	Test B Activity Value (% decrease in acidity, inhibition of gastric secretion) (Gastric Secretion)	Test E Cascade Assay, Stomach, Activity Value (ED50) (rat stomach fundus)	Test E Cascade Assay, Rectum, Activity Value (ED50) (chick rectum)	Test E Cascade Assay, Aorta, Activity Value (ED50) (rabbit aortic strip)	Test D Activity Value (ED50 mmHg, decrease in blood pressure) [1]	Test F Rat Uterus, Activity Value (ED50) (Rat Uterus; [2])	magnitude of second response to carbachol relative to the first (Rat Uterus; carbachol 1 mcg/ml, second response greater than the first)
> 10 µg/mL	COC(=O)CCC/C=C\C[C@H]1C(=O)CCC[C@@H]1/C=C/[C@H](O)C1CC2(CCC2)C1 (relative stereo) [TR-4759, dl Methyl-7-{6-oxo-2R-[3R-hydroxy-3-(spiro[3.3]hept-2-yl)-1E-propenyl]cyclohex-1R-yl}hept-5Z-enoate]	0 (>10000)	0 (<26)	0 (>10000)	0 (>10000)	0 (>10000)	–	–	–
> 10 µg/mL	CC1([C@@H](O)/C=C/[C@H]2[C@H](O)CC(=O)[C@@H]2CCCCCCCO)CC2(CCC2)C1 [TR-4841, 7-{3R-hydroxy-5-oxo-2R-[3S-hydroxy-3-(2-methylspiro[3.3]hept-2-yl)-1E-propenyl]cyclopent-1R-yl}heptan-1-ol]	0 (>10000)	0 (<26)	0 (>10000)	0 (>10000)	0 (>10000)	–	–	–
0.101 to 1 µg/mL (≈ 0.267 to 2.64 µM)	CC1([C@H](O)/C=C/[C@H]2[C@H](O)CC(=O)[C@@H]2CCCCCCCO)CC2(CCC2)C1 [TR-4852, 7-{3R-hydroxy-5-oxo-2R-[3R-hydroxy-3-(2-methylspiro[3.3]hept-2-yl)-1E-propenyl]cyclopent-1R-yl}heptan-1-ol]	0 (>10000)	2 (26-50, significant)	0 (>10000)	0 (>10000)	0 (>10000)	–	–	–
> 10 µg/mL	COC(=O)CCCCCC[C@H]1C(=O)C[C@@H](O)[C@@H]1/C=C/[C@H](O)C1(C)CC2(CCC2)C1 [TR-4842, Methyl 7-{3R-hydroxy-5-oxo-2R-[3S-hydroxy-3-(2-methylspiro[3.3]hept-2-yl)-1E-propenyl]cyclopent-1R-yl}heptanoate]	0 (>10000)	0 (<26)	0 (>10000)	0 (>10000)	0 (>10000)	–	–	–
